A word on the IC50: it is the midpoint of a concentration-inhibition curve.

Chain of DGKα (P23743 other isoform, or with tags, fused parts or gaps): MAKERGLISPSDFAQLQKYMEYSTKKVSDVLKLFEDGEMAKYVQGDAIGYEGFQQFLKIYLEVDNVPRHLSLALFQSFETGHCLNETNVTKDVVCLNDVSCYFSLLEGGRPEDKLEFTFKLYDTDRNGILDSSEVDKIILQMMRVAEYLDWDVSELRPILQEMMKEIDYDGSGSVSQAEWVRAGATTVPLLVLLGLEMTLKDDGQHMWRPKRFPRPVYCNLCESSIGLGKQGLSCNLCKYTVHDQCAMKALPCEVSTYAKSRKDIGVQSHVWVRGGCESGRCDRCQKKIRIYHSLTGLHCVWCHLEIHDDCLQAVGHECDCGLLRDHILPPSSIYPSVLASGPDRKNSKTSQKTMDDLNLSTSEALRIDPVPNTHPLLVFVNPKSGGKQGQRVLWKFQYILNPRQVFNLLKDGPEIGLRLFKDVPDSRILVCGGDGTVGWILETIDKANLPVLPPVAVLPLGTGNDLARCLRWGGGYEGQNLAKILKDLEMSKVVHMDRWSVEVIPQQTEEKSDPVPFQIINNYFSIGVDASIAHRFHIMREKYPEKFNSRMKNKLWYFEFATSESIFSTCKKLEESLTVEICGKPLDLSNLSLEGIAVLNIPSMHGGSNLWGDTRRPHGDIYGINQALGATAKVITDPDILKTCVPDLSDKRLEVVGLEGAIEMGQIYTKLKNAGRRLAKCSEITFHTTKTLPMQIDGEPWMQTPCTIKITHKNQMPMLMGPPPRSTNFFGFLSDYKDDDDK

For the assay, the target named is DGKα (Homo sapiens (Human), UniProt P23743). In words: Human DGKα kinase activity inhibition assay (ADP-Glo). The format is biochemical. To be noted: recombinant full-length human DGKα, 55 μM ATP, 7 μM 1,2-dioleoyl-sn-glycerol, read-out: IC50 values of examples in in vitro human DGKa kinase activity inhibition assays. The essentials:
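Recombinant full-length human DGKα (C-terminal FLAG, from insect cells) phosphorylated 1,2-dioleoyl-sn-glycerol presented in octyl-glucopyranoside micelles. ADP formed was quantified by ADP-Glo luminescence. Compounds were added from 100-fold DMSO stocks.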
On the technique in general: ADP-Glo first removes unused ATP, then detects ADP through luciferase.
Regarding `Cc1ccc2oc(C3CCN(c4c(C#N)c(=O)n(C)c5cc(OC6CCOC6)ccc45)CC3)nc2c1` (single isomer, unassigned) [Example 380, 1-methyl-4-[4-(5-methyl-1,3-benzoxazol-2-yl)piperidin-1-yl]-2-oxo-7-[(oxolan-3-yl)oxy]-1,2-dihydroquinoline-3-carbonitrile], the half-inhibitory concentration (IC50) was 0.4 nM.

For `Cn1c(=O)c(C#N)c(N2CCC(c3ccc4ccncc4c3)CC2)c2ccccc21` [Example 74], the half-maximal inhibitory concentration (IC50) was 48 nM.

For the compound `COCCc1ccc2nc(C3CCN(c4c(C(N)=O)c(=O)n(C)c5ccccc45)CC3)oc2c1` [Example 317, 4-{4-[6-(2-methoxyethyl)-1,3-benzoxazol-2-yl]piperidin-1-yl}-1-methyl-2-oxo-1,2-dihydroquinoline-3-carboxamide], the IC50 is 17 nM.

As for `Cc1ccc2oc(C3(C)CCN(c4c(C#N)c(=O)n(C)c5ccc(CC6COC6)cc45)CC3)nc2c1` [Example 286, 1-methyl-4-[4-methyl-4-(5-methyl-1,3-benzoxazol-2-yl)piperidin-1-yl]-6-[(oxetan-3-yl)methyl]-2-oxo-1,2-dihydroquinoline-3-carbonitrile], the IC50 turned out to be 374 nM.

On to `Cn1c(=O)c(C(N)=O)c(N2CCC(c3nnc(-c4cccc(Cl)c4)o3)CC2)c2ccccc21` [Example 464, 4-{4-[5-(3-chlorophenyl)-1,3,4-oxadiazol-2-yl]piperidin-1-yl}-1-methyl-2-oxo-1,2-dihydroquinoline-3-carboxamide], for which the IC50 stood at 123 nM.

`Cn1c(=O)c(C#N)c(N2CCC(O)(c3cc4ccccc4s3)CC2)c2ccccc21` [Example 340, 4-[4-(1-benzothiophen-2-yl)-4-hydroxypiperidin-1-yl]-1-methyl-2-oxo-1,2-dihydroquinoline-3-carbonitrile]: the concentration for half-maximal inhibition (IC50) came to 72 nM.

With `Cn1c(=O)c(C#N)c(N2CCC(c3nc4cc(Cl)ccc4o3)CC2)c2cccc(Br)c21` [Example 159, 8-bromo-4-[4-(5-chloro-1,3-benzoxazol-2-yl)piperidin-1-yl]-1-methyl-2-oxo-1,2-dihydroquinoline-3-carbonitrile], the IC50 was found to be 383 nM.

As for `CCC1(c2nc3ccccc3o2)CCN(c2c(C#N)c(=O)n(C)c3cc(Br)ccc23)CC1` [Example 223, 4-[4-(1,3-benzoxazol-2-yl)-4-ethylpiperidin-1-yl]-7-bromo-1-methyl-2-oxo-1,2-dihydroquinoline-3-carbonitrile], the half-maximal inhibitory concentration (IC50) came out at 1.2 nM.

Take `Cc1ccc2oc(C3CCN(c4c(C(N)=O)c(=O)n(C)c5cc(N(C)CCO)ccc45)CC3)nc2c1` [Example 495, 7-[(2-hydroxyethyl)(methyl)amino]-1-methyl-4-[4-(5-methyl-1,3-benzoxazol-2-yl)piperidin-1-yl]-2-oxo-1,2-dihydroquinoline-3-carboxamide]: the 50% inhibitory concentration (IC50) amounted to 1.4 nM.

Take `Cn1c(=O)c(C#N)c(N2CCC(c3nnc(-c4cccc(Cl)c4)o3)CC2)c2ccccc21` [Example 354, 4-{4-[5-(3-chlorophenyl)-1,3,4-oxadiazol-2-yl]piperidin-1-yl}-1-methyl-2-oxo-1,2-dihydroquinoline-3-carbonitrile]: the IC50 was 112 nM.

For the compound `Cc1ccc2oc(C3CCN(c4c(C(N)=O)c(=O)n(C)c5ccc(S(C)(=O)=O)cc45)CC3)nc2c1` [Example 454, 6-(methanesulfonyl)-1-methyl-4-[4-(5-methyl-1,3-benzoxazol-2-yl)piperidin-1-yl]-2-oxo-1,2-dihydroquinoline-3-carboxamide], the IC50 is 373 nM.

For `Cc1ccc2oc(C3CCN(c4c(C#N)c(=O)n(C)c5cc(OC6CCOCC6)ccc45)CC3)nc2c1` [Example 382, 1-methyl-4-[4-(5-methyl-1,3-benzoxazol-2-yl)piperidin-1-yl]-7-[(oxan-4-yl)oxy]-2-oxo-1,2-dihydroquinoline-3-carbonitrile], the IC50 stood at 13 nM.

Turning to `Cc1ccccc1-c1nnc(C2CCN(c3c(C(N)=O)c(=O)n(C)c4cc(O)c(Br)cc34)CC2)o1` [Example 529, 6-bromo-7-hydroxy-1-methyl-4-{4-[5-(2-methylphenyl)-1,3,4-oxadiazol-2-yl]piperidin-1-yl}-2-oxo-1,2-dihydroquinoline-3-carboxamide], the 50% inhibitory concentration (IC50) is 46 nM.

As for `Cc1ccc2nc(C3(C)CCN(c4c(C(N)=O)c(=O)n(C)c5ccc(C)cc45)CC3)oc2c1` [Example 197, 1,6-dimethyl-4-[4-methyl-4-(6-methyl-1,3-benzoxazol-2-yl)piperidin-1-yl]-2-oxo-1,2-dihydroquinoline-3-carboxamide], the concentration for half-maximal inhibition (IC50) amounted to 2.2 nM.

For `Cc1ccc2c(c1)c(N1CCC(C)(c3nc4cc(C(C)C)ccc4o3)CC1)c(C(N)=O)c(=O)n2C` [Example 199, 1,6-dimethyl-4-{4-methyl-4-[5-(propan-2-yl)-1,3-benzoxazol-2-yl]piperidin-1-yl}-2-oxo-1,2-dihydroquinoline-3-carboxamide], the concentration for half-maximal inhibition (IC50) stood at 3.4 nM.

For `Cn1c(=O)c(C(N)=O)c(N2CCC(C)(c3nc4ccccc4o3)CC2)c2ccc(F)cc21` [Example 303, 4-[4-(1,3-benzoxazol-2-yl)-4-methylpiperidin-1-yl]-7-fluoro-1-methyl-2-oxo-1,2-dihydroquinoline-3-carboxamide], the IC50 is 1.9 nM.

As to `Cc1ccc2oc(C3CCN(c4c(C#N)c(=O)n(C)c5ccc(C)cc45)CC3)nc2c1` [Example 166, 1,6-dimethyl-4-[4-(5-methyl-1,3-benzoxazol-2-yl)piperidin-1-yl]-2-oxo-1,2-dihydroquinoline-3-carbonitrile], the IC50 was 2.2 nM.

As for `CC(C)Oc1ccc(C2CCN(c3c(C#N)c(=O)n(C)c4ccccc34)CC2)cc1` [Example 38, 1-methyl-2-oxo-4-(4-{4-[(propan-2-yl)oxy]phenyl}piperidin-1-yl)-1,2-dihydroquinoline-3-carbonitrile], the half-inhibitory concentration (IC50) amounted to 1.5 nM.

In the case of `Cn1c(=O)c(C#N)c(N2CCC(c3nc4cc(C5COC5)ccc4o3)CC2)c2ccccc21` [Example 287, 1-methyl-4-{4-[5-(oxetan-3-yl)-1,3-benzoxazol-2-yl]piperidin-1-yl}-2-oxo-1,2-dihydroquinoline-3-carbonitrile], the IC50 was 22 nM.

`Cn1c(=O)c(C#N)c(N2CCC(c3cccc(N4CCOCC4)c3)CC2)c2ccccc21` [Example 63]: the IC50 stood at 39 nM.

`Cn1c(=O)c(C#N)c(N2CCC(c3cccc(Cl)c3)CC2)c2ccccc21` [Example 325, 4-[4-(3-chlorophenyl)piperidin-1-yl]-1-methyl-2-oxo-1,2-dihydroquinoline-3-carbonitrile]: the IC50 came out at 26 nM.

As to `Cc1ccc2oc(C3CCN(c4c(C(N)=O)c(=O)n(C)c5cc(Cl)ccc45)CC3)nc2c1` [Example 301, 7-chloro-1-methyl-4-[4-(5-methyl-1,3-benzoxazol-2-yl)piperidin-1-yl]-2-oxo-1,2-dihydroquinoline-3-carboxamide], the IC50 came to 1.4 nM.

Take `C=C(c1cc2c(N3CCC(c4nc5cc(C)ccc5o4)CC3)c(C#N)c(=O)n(C)c2cc1OC1CCOC1)C(F)(F)F` (racemic) [Example 433, (rac)-1-methyl-4-[4-(5-methyl-1,3-benzoxazol-2-yl)piperidin-1-yl]-2-oxo-7-[(oxolan-3-yl)oxy]-6-(3,3,3-trifluoroprop-1-en-2-yl)-1,2-dihydroquinoline-3-carbonitrile]: the concentration for half-maximal inhibition (IC50) was 8.6 nM.

With `Cc1ccc2oc(C3(C)CCN(c4c(C#N)c(=O)n(C)c5c(OC6COC6)cccc45)CC3)nc2c1` [Example 253, 1-methyl-4-[4-methyl-4-(5-methyl-1,3-benzoxazol-2-yl)piperidin-1-yl]-8-[(oxetan-3-yl)oxy]-2-oxo-1,2-dihydroquinoline-3-carbonitrile], the IC50 is 14 nM.

On to `CCC1(c2nc3cc(C)ccc3o2)CCN(c2c(C#N)c(=O)n(C)c3ccccc23)CC1` [Example 140, 4-[4-ethyl-4-(5-methyl-1,3-benzoxazol-2-yl)piperidin-1-yl]-1-methyl-2-oxo-1,2-dihydroquinoline-3-carbonitrile], for which the half-inhibitory concentration (IC50) was 1.6 nM.

For `Cc1nc2ccc(C3CCN(c4c(C#N)c(=O)n(C)c5ccccc45)CC3)cc2o1` [Example 376, 1-methyl-4-[4-(2-methyl-1,3-benzoxazol-6-yl)piperidin-1-yl]-2-oxo-1,2-dihydroquinoline-3-carbonitrile], the IC50 was 14 nM.

`Cn1c(=O)c(C#N)c(N2CCC(c3nc4cc(Cl)ccc4o3)CC2)c2ccccc21` [Example 11, 4-[4-(5-chloro-1,3-benzoxazol-2-yl)piperidin-1-yl]-1-methyl-2-oxo-1,2-dihydroquinoline-3-carbonitrile]: the IC50 is 3.8 nM.

Regarding `Cn1c(=O)c(C#N)c(N2CCC(c3cccc(NS(=O)(=O)c4ccccc4)c3)CC2)c2ccccc21` [Example 68, N-{3-[1-(3-cyano-1-methyl-2-oxo-1,2-dihydroquinolin-4-yl)piperidin-4-yl]phenyl}benzenesulfonamide], the 50% inhibitory concentration (IC50) is 99 nM.

As for `COc1cccc(-c2csc(C3CCN(c4c(C#N)c(=O)n(C)c5ccccc45)CC3)n2)c1` [Example 372, 4-{4-[4-(3-methoxyphenyl)-1,3-thiazol-2-yl]piperidin-1-yl}-1-methyl-2-oxo-1,2-dihydroquinoline-3-carbonitrile], the IC50 came to 14 nM.

As to `CCOc1ccc2c(c1)c(N1CCC(c3nc4cc(C)ccc4o3)CC1)c(C#N)c(=O)n2C` [Example 405, 6-ethoxy-1-methyl-4-[4-(5-methyl-1,3-benzoxazol-2-yl)piperidin-1-yl]-2-oxo-1,2-dihydroquinoline-3-carbonitrile], the IC50 was 41 nM.

As to `COc1ccc(C2CCN(c3c(C(N)=O)c(=O)n(C)c4cc(C5COC5)ccc34)CC2)cc1` [Example 115, 4-[4-(4-methoxyphenyl)piperidin-1-yl]-1-methyl-7-(oxetan-3-yl)-2-oxo-1,2-dihydroquinoline-3-carboxamide], the IC50 is 20 nM.

For the compound `Cc1ccc2c(c1)c(N1CCC(C)(c3nc4ccccc4o3)CC1)c(C(N)=O)c(=O)n2C` [Example 195, 4-[4-(1,3-benzoxazol-2-yl)-4-methylpiperidin-1-yl]-1,6-dimethyl-2-oxo-1,2-dihydroquinoline-3-carboxamide], the IC50 was 1.5 nM.

The values are drawn from US11998539B2, “Substituted aminoquinolones as DGKalpha inhibitors for immune activation” (Bayer Aktiengesellschaft, priority 2019, dated 2024).
